Measurements published in PubChem BioAssay AID1963982 (Molecular Pharmacology Branch, DTP, NCI, 2024).
Several values for one entry are separate records, joined by “and”; a condition that tells them apart may be missing. Equal entries are not always repeated.

System: 313798-341-R-J2-PDC spheroids, viability
Assay: Anticancer human tumor 313798-341-R-J2-PDC patient-derived cervical squamous cell carcinoma cell line growth inhibition [PI3K]
Conditions: spheroids with HUVEC and MSC; for viability, T/C: stronger effect = lower value
Summary of the method: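 Viability of mixed-cell spheroids was determined after exposure to pairwise combinations, one partner being inavolisib, alpelisib, duvelisib or copanlisib. Highest tested concentration matched clinical Cmax where known and 10 microM where not, descending in half-log steps.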

[1] = curve of first compound, second compound 0.0316 µM
[2] = curve of first compound, second compound 0.1 µM
[3] = curve of first compound, second compound 0.316 µM
[4] = curve of first compound, second compound 1 µM
[5] = curve of first compound, second compound 3.16 µM
[6] = curve of first compound, second compound 10 µM
[7] = second compound 0.0316 µM, first compound 0.0316 µM
[8] = second compound 0.0316 µM, first compound 0.1 µM
[9] = second compound 0.0316 µM, first compound 0.316 µM
[10] = second compound 0.0316 µM, first compound 1 µM
[11] = second compound 0.0316 µM, first compound 3.16 µM
[12] = second compound 0.0316 µM, first compound 10 µM
[13] = second compound 0.1 µM, first compound 0.0316 µM
[14] = second compound 0.1 µM, first compound 0.1 µM
[15] = second compound 0.1 µM, first compound 0.316 µM
[16] = second compound 0.1 µM, first compound 1 µM
[17] = second compound 0.1 µM, first compound 3.16 µM
[18] = second compound 0.1 µM, first compound 10 µM
[19] = second compound 0.316 µM, first compound 0.0316 µM
[20] = second compound 0.316 µM, first compound 0.1 µM
[21] = second compound 0.316 µM, first compound 0.316 µM
[22] = second compound 0.316 µM, first compound 1 µM
[23] = second compound 0.316 µM, first compound 3.16 µM
[24] = second compound 0.316 µM, first compound 10 µM
[25] = second compound 1 µM, first compound 0.0316 µM
[26] = second compound 1 µM, first compound 0.1 µM
[27] = second compound 1 µM, first compound 0.316 µM
[28] = second compound 1 µM, first compound 1 µM
[29] = second compound 1 µM, first compound 3.16 µM
[30] = second compound 1 µM, first compound 10 µM
[31] = second compound 3.16 µM, first compound 0.0316 µM
[32] = second compound 3.16 µM, first compound 0.1 µM
[33] = second compound 3.16 µM, first compound 0.316 µM
[34] = second compound 3.16 µM, first compound 1 µM
[35] = second compound 3.16 µM, first compound 3.16 µM
[36] = second compound 3.16 µM, first compound 10 µM
[37] = second compound 10 µM, first compound 0.0316 µM
[38] = second compound 10 µM, first compound 0.1 µM
[39] = second compound 10 µM, first compound 0.316 µM
[40] = second compound 10 µM, first compound 1 µM
[41] = second compound 10 µM, first compound 3.16 µM
[42] = second compound 10 µM, first compound 10 µM
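Also: spheroids exposed to compounds for seven days.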
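For viability, T/C in this document: 100% = DMSO vehicle control viability.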

Compound: Cn1nccc1Nc1nccc(-c2ccn(C(CO)c3ccc(Cl)c(F)c3)c(=O)c2)n1 (stereo not given) + CC(Nc1ncnc2nc[nH]c12)c1cc2cccc(Cl)c2c(=O)n1-c1ccccc1
- IC50 [1]: > 10 µM
- IC50 [2]: > 10 µM
- IC50 [3]: > 10 µM
- IC50 [4]: > 10 µM
- IC50 [5]: > 10 µM
- IC50 [6]: > 10 µM
- viability, T/C [7]: 92.4%
- viability, T/C [8]: 94.5%
- viability, T/C [9]: 90.1%
- viability, T/C [10]: 99.1%
- viability, T/C [11]: 91.3%
- viability, T/C [12]: 95.1%
- viability, T/C [13]: 100%
- viability, T/C [14]: 108%
- viability, T/C [15]: 97.7%
- viability, T/C [16]: 104%
- viability, T/C [17]: 105%
- viability, T/C [18]: 94.2%
- viability, T/C [19]: 114%
- viability, T/C [20]: 95.7%
- viability, T/C [21]: 90.2%
- viability, T/C [22]: 95%
- viability, T/C [23]: 110%
- viability, T/C [24]: 101%
- viability, T/C [25]: 102%
- viability, T/C [26]: 85.4%
- viability, T/C [27]: 107%
- viability, T/C [28]: 98.9%
- viability, T/C [29]: 93.5%
- viability, T/C [30]: 94.1%
- viability, T/C [31]: 97.6%
- viability, T/C [32]: 96%
- viability, T/C [33]: 94.1%
- viability, T/C [34]: 87.7%
- viability, T/C [35]: 89.9%
- viability, T/C [36]: 90.6%
- viability, T/C [37]: 98.8%
- viability, T/C [38]: 75.3%
- viability, T/C [39]: 77.8%
- viability, T/C [40]: 78.7%
- viability, T/C [41]: 85.8%
- viability, T/C [42]: 73.8%

Compound: CCN1CCN(Cc2ccc(Nc3ncc(F)c(-c4cc(F)c5nc(C)n(C(C)C)c5c4)n3)nc2)CC1 + Cc1nc(NC(=O)N2CCCC2C(N)=O)sc1-c1ccnc(C(C)(C)C(F)(F)F)c1
- IC50 [1]: > 1 µM
- IC50 [2]: > 1 µM
- IC50 [3]: > 1 µM
- IC50 [4]: > 1 µM
- IC50 [5]: > 1 µM
- IC50 [6]: < 0.00316 µM
- viability, T/C (second compound 0.0316 µM, first compound 0.00316 µM): 106%
- viability, T/C (second compound 0.0316 µM, first compound 0.01 µM): 104%
- viability, T/C [7]: 109%
- viability, T/C [8]: 108%
- viability, T/C [9]: 131%
- viability, T/C [10]: 129%
- viability, T/C (second compound 0.1 µM, first compound 0.00316 µM): 100%
- viability, T/C (second compound 0.1 µM, first compound 0.01 µM): 104%
- viability, T/C [13]: 111%
- viability, T/C [14]: 104%
- viability, T/C [15]: 126%
- viability, T/C [16]: 131%
- viability, T/C (second compound 0.316 µM, first compound 0.00316 µM): 96.9%
- viability, T/C (second compound 0.316 µM, first compound 0.01 µM): 102%
- viability, T/C [19]: 112%
- viability, T/C [20]: 112%
- viability, T/C [21]: 114%
- viability, T/C [22]: 114%
- viability, T/C (second compound 1 µM, first compound 0.00316 µM): 93.2%
- viability, T/C (second compound 1 µM, first compound 0.01 µM): 102%
- viability, T/C [25]: 94.2%
- viability, T/C [26]: 110%
- viability, T/C [27]: 88.2%
- viability, T/C [28]: 80.9%
- viability, T/C (second compound 3.16 µM, first compound 0.00316 µM): 63.6%
- viability, T/C (second compound 3.16 µM, first compound 0.01 µM): 62.6%
- viability, T/C [31]: 56.2%
- viability, T/C [32]: 59.9%
- viability, T/C [33]: 58.4%
- viability, T/C [34]: 69%
- viability, T/C (second compound 10 µM, first compound 0.00316 µM): 37%
- viability, T/C (second compound 10 µM, first compound 0.01 µM): 37.4%
- viability, T/C [37]: 34.3%
- viability, T/C [38]: 35.8%
- viability, T/C [39]: 41.4%
- viability, T/C [40]: 45.8%

Compound: CC1(C)CCC(Nc2ncc(C(F)(F)F)c(-c3c[nH]c4c(P(C)(C)=O)c(C#N)ccc34)n2)CN1 (stereo not given) + Cc1nc(NC(=O)N2CCCC2C(N)=O)sc1-c1ccnc(C(C)(C)C(F)(F)F)c1
- IC50 [1]: > 10 µM
- IC50 [2]: > 10 µM
- IC50 [3]: < 0.0316 µM
- IC50 [4]: < 0.0316 µM
- IC50 [5]: < 0.0316 µM
- IC50 [6]: < 0.0316 µM
- viability, T/C [7]: 64.5%
- viability, T/C [8]: 49.2%
- viability, T/C [9]: 52.4%
- viability, T/C [10]: 54.4%
- viability, T/C [11]: 58.8%
- viability, T/C [12]: 71.9%
- viability, T/C [13]: 54.9%
- viability, T/C [14]: 50.8%
- viability, T/C [15]: 50.3%
- viability, T/C [16]: 53.1%
- viability, T/C [17]: 54.1%
- viability, T/C [18]: 66.6%
- viability, T/C [19]: 45.7%
- viability, T/C [20]: 39.6%
- viability, T/C [21]: 35.5%
- viability, T/C [22]: 38.7%
- viability, T/C [23]: 43.8%
- viability, T/C [24]: 52.3%
- viability, T/C [25]: 34.7%
- viability, T/C [26]: 32.2%
- viability, T/C [27]: 35.5%
- viability, T/C [28]: 34.2%
- viability, T/C [29]: 36%
- viability, T/C [30]: 33.7%
- viability, T/C [31]: 27.9%
- viability, T/C [32]: 25%
- viability, T/C [33]: 23.7%
- viability, T/C [34]: 23.3%
- viability, T/C [35]: 26.2%
- viability, T/C [36]: 10.8%
- viability, T/C [37]: 16.9%
- viability, T/C [38]: 18.7%
- viability, T/C [39]: 16.6%
- viability, T/C [40]: 17.8%
- viability, T/C [41]: 17.2%
- viability, T/C [42]: 1.7%

Compound: CCCS(=O)(=O)Nc1ccc(F)c(C(=O)c2c[nH]c3ncc(-c4ccc(Cl)cc4)cc23)c1F + CC(Nc1ncnc2nc[nH]c12)c1cc2cccc(Cl)c2c(=O)n1-c1ccccc1
- IC50 [1]: 8.61 µM
- IC50 [2]: 6.79 µM
- IC50 [3]: 6.52 µM
- IC50 [4]: 7.03 µM
- IC50 [5]: 6.39 µM
- IC50 [6]: 4.69 µM
- viability, T/C [7]: 103%
- viability, T/C [8]: 103%
- viability, T/C [9]: 108%
- viability, T/C [10]: 105%
- viability, T/C [11]: 96.5%
- viability, T/C [12]: 43%
- viability, T/C [13]: 112%
- viability, T/C [14]: 103%
- viability, T/C [15]: 90.3%
- viability, T/C [16]: 90.9%
- viability, T/C [17]: 92.8%
- viability, T/C [18]: 28.1%
- viability, T/C [19]: 92.6%
- viability, T/C [20]: 96.5%
- viability, T/C [21]: 101%
- viability, T/C [22]: 104%
- viability, T/C [23]: 93.9%
- viability, T/C [24]: 23.8%
- viability, T/C [25]: 112%
- viability, T/C [26]: 99.6%
- viability, T/C [27]: 98.8%
- viability, T/C [28]: 116%
- viability, T/C [29]: 98.8%
- viability, T/C [30]: 27.8%
- viability, T/C [31]: 107%
- viability, T/C [32]: 101%
- viability, T/C [33]: 118%
- viability, T/C [34]: 106%
- viability, T/C [35]: 90.1%
- viability, T/C [36]: 24.5%
- viability, T/C [37]: 95%
- viability, T/C [38]: 101%
- viability, T/C [39]: 91.2%
- viability, T/C [40]: 83.8%
- viability, T/C [41]: 69.2%
- viability, T/C [42]: 16.6%

Compound: CC(=O)c1c(C)c2cnc(Nc3ccc(N4CCNCC4)cn3)nc2n(C2CCCC2)c1=O
- viability, T/C (compound 0.000316 µM): 105% (2×) and 108%
- viability, T/C (compound 0.001 µM): 105% (2×) and 110%
- viability, T/C (compound 0.00316 µM): 109% and 99.2% and 92.1%
- viability, T/C (compound 0.01 µM): 101% and 103% and 118%
- viability, T/C (compound 0.0316 µM): 101% (2×) and 97.3%
- viability, T/C (compound 0.1 µM): 94.9% and 101% and 110%
- IC50 (curve of compound): > 0.1 µM
